Assay results: patent publication US20250243189A1, “HERBICIDAL IMIDAZOLE-CONTAINING COMPOUNDS” (SYNGENTA CROP PROTECTION AG, priority 2022, published 2025)

What was measured:
Type in all cases: in vivo
Conditions in all cases: 250 g/ha, evaluated after 13 days, five-point scale
[1] = test system: Setaria faberi (SETFA); assay: Post-emergence herbicidal glasshouse test
Description: (§1) Seeds of a variety of test species are sown in standard soil in pots Amaranthus retoflexus (AMARE), Echinochloa crus-galli (ECHCG), Setaria faberi (SETFA)). After cultivation for one day (pre-emergence) or after 8 days cultivation (post-emergence) under controlled conditions in a glasshouse (at 24/16° C., day/night; 14 hours light; 65% humidity), the plants are sprayed with an aqueous spray solution derived from the formulation of the technical active ingredient in acetone/water (50:50) solution containing 0.5% Tween 20 (polyoxyethelyene sorbitan monolaurate, CAS RN 9005-64-5). Compounds are applied at 250 g/ha unless otherwise stated. The test plants are then grown in a glasshouse under controlled conditions in a glasshouse (at 24/16° C., day/night; 14 hours light; 65% humidity) and watered twice daily. After 13 days for pre and post-emergence, the test is evaluated for the percentage damage caused to the plant. The biological activities are shown in the following table on a five-point scale (5=81-100%; 4=61-80%; 3=41-60%; 2=21-40%; 1=0-20%).

[2] = test system: IPOHE; assay: Post-emergence herbicidal glasshouse test
Description: as §1

[3] = test system: Amaranthus retoflexus (AMARE); assay: Post-emergence herbicidal glasshouse test
Description: as §1

[4] = test system: Echinochloa crus-galli (ECHCG); assay: Post-emergence herbicidal glasshouse test
Description: as §1

[5] = test system: AMAPA; assay: Post-emergence herbicidal glasshouse test
Description: [Worded in the source for another organism; this organism is reported under the same test.] as §1

[6] = test system: Setaria faberi (SETFA); assay: Pre-emergence herbicidal glasshouse test
Description: as §1

[7] = test system: IPOHE; assay: Pre-emergence herbicidal glasshouse test
Description: as §1

[8] = test system: Amaranthus retoflexus (AMARE); assay: Pre-emergence herbicidal glasshouse test
Description: as §1

[9] = test system: Echinochloa crus-galli (ECHCG); assay: Pre-emergence herbicidal glasshouse test
Description: as §1

[10] = test system: AMAPA; assay: Pre-emergence herbicidal glasshouse test
Description: [Worded in the source for another organism; this organism is reported under the same test.] as §1

Cc1c(-c2nc(C(F)(F)F)cn2Cc2ncc(Cl)cn2)cnn1C [Compound 1.012, 5-chloro-2-[[2-(1,5-dimethylpyrazol-4-yl)-4-(trifluoromethyl)imidazol-1-yl]methyl]pyrimidine]
1 (1=0-20%): percentage damage caused to the plant, SETFA [1] | percentage damage caused to the plant, ECHCG [4] | percentage damage caused to the plant, SETFA [6] | percentage damage caused to the plant, ECHCG [9]
3 (3=41-60%): percentage damage caused to the plant, IPOHE [2] | percentage damage caused to the plant, AMAPA [5] | percentage damage caused to the plant, AMARE [8]
2 (2=21-40%): percentage damage caused to the plant, AMARE [3]
5 (5=81-100%): percentage damage caused to the plant, IPOHE [7] | percentage damage caused to the plant, AMAPA [10]

Cn1cc(-c2nc(C(F)(F)F)cn2Cc2ncc(Cl)cn2)cn1 [Compound 1.014]
4 (4=61-80%): percentage damage caused to the plant, SETFA [6] | percentage damage caused to the plant, AMARE [8] | percentage damage caused to the plant, ECHCG [9]
5 (5=81-100%): percentage damage caused to the plant, IPOHE [7] | percentage damage caused to the plant, AMAPA [10]
2 (2=21-40%): percentage damage caused to the plant, SETFA [1] | percentage damage caused to the plant, ECHCG [4]
3 (3=41-60%): percentage damage caused to the plant, IPOHE [2] | percentage damage caused to the plant, AMARE [3] | percentage damage caused to the plant, AMAPA [5]

FC(F)(F)c1cn(Cc2ncc(Cl)cn2)c(-c2ccco2)n1 [Compound 1.016]
1 (1=0-20%): percentage damage caused to the plant, SETFA [1] | percentage damage caused to the plant, IPOHE [2] | percentage damage caused to the plant, AMARE [3] | percentage damage caused to the plant, ECHCG [4] | percentage damage caused to the plant, AMAPA [5] | percentage damage caused to the plant, SETFA [6] | percentage damage caused to the plant, IPOHE [7] | percentage damage caused to the plant, AMARE [8] | percentage damage caused to the plant, ECHCG [9] | percentage damage caused to the plant, AMAPA [10]

Cc1cc(-c2nc(C(F)(F)F)cn2Cc2ncc(Cl)cn2)n(C)n1 [Compound 1.024]
5 (5=81-100%): percentage damage caused to the plant, SETFA [1] | percentage damage caused to the plant, IPOHE [2] | percentage damage caused to the plant, AMARE [3] | percentage damage caused to the plant, ECHCG [4] | percentage damage caused to the plant, AMAPA [5] | percentage damage caused to the plant, SETFA [6] | percentage damage caused to the plant, IPOHE [7] | percentage damage caused to the plant, AMARE [8] | percentage damage caused to the plant, ECHCG [9] | percentage damage caused to the plant, AMAPA [10]

FC(F)(F)c1cn(Cc2ncc(Cl)cn2)c(-c2ccsc2Cl)n1 [Compound 1.025]
3 (3=41-60%): percentage damage caused to the plant, IPOHE [2] | percentage damage caused to the plant, AMAPA [5]
4 (4=61-80%): percentage damage caused to the plant, SETFA [1] | percentage damage caused to the plant, AMARE [3] | percentage damage caused to the plant, ECHCG [4] | percentage damage caused to the plant, IPOHE [7]
5 (5=81-100%): percentage damage caused to the plant, SETFA [6] | percentage damage caused to the plant, AMARE [8] | percentage damage caused to the plant, ECHCG [9] | percentage damage caused to the plant, AMAPA [10]

Cc1csc(-c2nc(C(F)(F)F)cn2Cc2ncc(Cl)cn2)c1 [Compound 1.029]
4 (4=61-80%): percentage damage caused to the plant, SETFA [1] | percentage damage caused to the plant, ECHCG [4]
2 (2=21-40%): percentage damage caused to the plant, IPOHE [2]
1 (1=0-20%): percentage damage caused to the plant, IPOHE [7]
5 (5=81-100%): percentage damage caused to the plant, AMARE [3] | percentage damage caused to the plant, AMAPA [5] | percentage damage caused to the plant, SETFA [6] | percentage damage caused to the plant, AMARE [8] | percentage damage caused to the plant, ECHCG [9] | percentage damage caused to the plant, AMAPA [10]

FC(F)(F)c1cn(Cc2ncc(Cl)cn2)c(-c2ccsc2)n1 [Compound 1.030]
5 (5=81-100%): percentage damage caused to the plant, SETFA [1] | percentage damage caused to the plant, AMARE [3] | percentage damage caused to the plant, AMAPA [5] | percentage damage caused to the plant, SETFA [6] | percentage damage caused to the plant, AMARE [8] | percentage damage caused to the plant, ECHCG [9] | percentage damage caused to the plant, AMAPA [10]
4 (4=61-80%): percentage damage caused to the plant, IPOHE [2] | percentage damage caused to the plant, ECHCG [4] | percentage damage caused to the plant, IPOHE [7]

FC(F)(F)c1cn(Cc2ncc(Cl)cn2)c(-c2ccns2)n1 [Compound 1.033]
5 (5=81-100%): percentage damage caused to the plant, SETFA [1] | percentage damage caused to the plant, AMARE [3] | percentage damage caused to the plant, ECHCG [4] | percentage damage caused to the plant, AMAPA [5] | percentage damage caused to the plant, SETFA [6] | percentage damage caused to the plant, IPOHE [7] | percentage damage caused to the plant, AMARE [8] | percentage damage caused to the plant, ECHCG [9] | percentage damage caused to the plant, AMAPA [10]
4 (4=61-80%): percentage damage caused to the plant, IPOHE [2]

FC(F)(F)c1cn(Cc2ncc(Cl)cn2)c(-c2cccs2)n1 [Compound 1.034]
4 (4=61-80%): percentage damage caused to the plant, IPOHE [2] | percentage damage caused to the plant, AMARE [3] | percentage damage caused to the plant, AMAPA [5]
5 (5=81-100%): percentage damage caused to the plant, AMARE [8] | percentage damage caused to the plant, AMAPA [10]
2 (2=21-40%): percentage damage caused to the plant, SETFA [1] | percentage damage caused to the plant, ECHCG [4] | percentage damage caused to the plant, SETFA [6] | percentage damage caused to the plant, IPOHE [7] | percentage damage caused to the plant, ECHCG [9]

Cc1sccc1-c1nc(C(F)(F)F)cn1Cc1ncc(Cl)cn1 [Compound 1.035]
5 (5=81-100%): percentage damage caused to the plant, SETFA [1] | percentage damage caused to the plant, AMARE [3] | percentage damage caused to the plant, ECHCG [4] | percentage damage caused to the plant, SETFA [6] | percentage damage caused to the plant, AMARE [8] | percentage damage caused to the plant, ECHCG [9] | percentage damage caused to the plant, AMAPA [10]
4 (4=61-80%): percentage damage caused to the plant, IPOHE [2] | percentage damage caused to the plant, AMAPA [5] | percentage damage caused to the plant, IPOHE [7]

FC(F)(F)c1cn(Cc2ncc(Cl)cn2)c(-c2cc(Cl)sc2Cl)n1 [Compound 1.037]
4 (4=61-80%): percentage damage caused to the plant, AMARE [3] | percentage damage caused to the plant, SETFA [6] | percentage damage caused to the plant, ECHCG [9]
5 (5=81-100%): percentage damage caused to the plant, IPOHE [7] | percentage damage caused to the plant, AMARE [8] | percentage damage caused to the plant, AMAPA [10]
3 (3=41-60%): percentage damage caused to the plant, SETFA [1] | percentage damage caused to the plant, IPOHE [2] | percentage damage caused to the plant, ECHCG [4] | percentage damage caused to the plant, AMAPA [5]

FC(F)(F)c1cn(Cc2ncc(Cl)cn2)c(-n2cc(Cl)cn2)n1 [Compound 1.065, 5-chloro-2-[[2-(4-chloropyrazol-1-yl)-4-(trifluoromethyl)imidazol-1-yl]methyl]pyrimidine]
1 (1=0-20%): percentage damage caused to the plant, ECHCG [9]
3 (3=41-60%): percentage damage caused to the plant, IPOHE [2]
2 (2=21-40%): percentage damage caused to the plant, SETFA [1] | percentage damage caused to the plant, ECHCG [4] | percentage damage caused to the plant, SETFA [6]
5 (5=81-100%): percentage damage caused to the plant, AMARE [8] | percentage damage caused to the plant, AMAPA [10]
4 (4=61-80%): percentage damage caused to the plant, AMARE [3] | percentage damage caused to the plant, AMAPA [5] | percentage damage caused to the plant, IPOHE [7]

FC(F)(F)c1cn(Cc2ncc(Cl)cn2)c(-n2ccc(Cl)n2)n1 [Compound 1.066]
5 (5=81-100%): percentage damage caused to the plant, AMARE [8] | percentage damage caused to the plant, AMAPA [10]
2 (2=21-40%): percentage damage caused to the plant, SETFA [6]
4 (4=61-80%): percentage damage caused to the plant, IPOHE [2] | percentage damage caused to the plant, AMARE [3] | percentage damage caused to the plant, IPOHE [7]
3 (3=41-60%): percentage damage caused to the plant, AMAPA [5]
1 (1=0-20%): percentage damage caused to the plant, SETFA [1] | percentage damage caused to the plant, ECHCG [4] | percentage damage caused to the plant, ECHCG [9]

Fc1cnn(-c2nc(C(F)(F)F)cn2Cc2ncc(Cl)cn2)c1 [Compound 1.067]
4 (4=61-80%): percentage damage caused to the plant, AMARE [3] | percentage damage caused to the plant, AMAPA [10]
3 (3=41-60%): percentage damage caused to the plant, AMAPA [5]
5 (5=81-100%): percentage damage caused to the plant, AMARE [8]
2 (2=21-40%): percentage damage caused to the plant, IPOHE [2] | percentage damage caused to the plant, IPOHE [7]
1 (1=0-20%): percentage damage caused to the plant, SETFA [1] | percentage damage caused to the plant, ECHCG [4] | percentage damage caused to the plant, SETFA [6] | percentage damage caused to the plant, ECHCG [9]
